From paper PMC7749516, “Safety and nonclinical and clinical pharmacokinetics of PC945, a novel inhaled triazole antifungal agent” (Pharmacology Research & Perspectives, 2020)
Where two headings read alike, the source gives them in different places.

Experiments:
[1] = cited from earlier work
CYP3A4/5 = assay: CYP inhibition in pooled human liver microsomes; format: in vitro ADME; conditions: without preincubation, pooled human liver microsomes
Method: Microsomal reactions were terminated by adding 100 μL of cold (4°C) methanol containing appropriate internal standard. Aliquots (150 μL) of each sample were centrifuged and the supernatant was used for substrate analysis by ultra‐performance liquid chromatography with tandem mass spectrometry (UPLC‐MS/MS) on the day of incubations.
Change in substrate concentration was measured to determine the extent of CYP‐isoform inhibition. The 30‐minute preincubations were performed to determine whether there was time‐dependent inhibition of any CYP isoform (CYP1A2, 2B6, 2C8, 2C9, 2C19, 2D6, and 3A4/5). Untreated control contained only solvent, dimethyl sulfoxide (≤0.5% [v/v]).

| SMILES | Mean concentration in pulmonary alveolar cells relative to lung epithelial lining fluid and plasma ([1]; 14‐day oral 400 mg twice daily, steady state) | Cmax ([1]; after 200 mg three times daily oral dosing) [nM] | IC50 (CYP3A4/5; probe midazolam, substrate midazolam) [nM] | IC50 (CYP3A4/5; probe testosterone, substrate testosterone) [nM] | Cmax ([1]; after 15‐day, 200 mg daily oral dosing) [nM] |
| --- | --- | --- | --- | --- | --- |
| CC[C@@H]([C@H](C)O)n1ncn(-c2ccc(N3CCN(c4ccc(OC[C@@H]5CO[C@@](Cn6cncn6)(c6ccc(F)cc6F)C5)cc4)CC3)cc2)c1=O [posaconazole, reference compound] | over 30 fold | 830 | 320 | 81 |  |
| CCC(C)n1ncn(-c2ccc(N3CCN(c4ccc(OCC5COC(Cn6cncn6)(c6ccc(Cl)cc6Cl)O5)cc4)CC3)cc2)c1=O (centres unmarked) [itraconazole] |  |  |  |  | 1520 |
